# Source: PMC8800119 (The Journal of Biological Chemistry, 2022)
# Biological target: T1, glutaminase C (GAC) (Homo sapiens, UniProt O94925, Y466W)
# T1 sequence (O94925 72-550 Y466W): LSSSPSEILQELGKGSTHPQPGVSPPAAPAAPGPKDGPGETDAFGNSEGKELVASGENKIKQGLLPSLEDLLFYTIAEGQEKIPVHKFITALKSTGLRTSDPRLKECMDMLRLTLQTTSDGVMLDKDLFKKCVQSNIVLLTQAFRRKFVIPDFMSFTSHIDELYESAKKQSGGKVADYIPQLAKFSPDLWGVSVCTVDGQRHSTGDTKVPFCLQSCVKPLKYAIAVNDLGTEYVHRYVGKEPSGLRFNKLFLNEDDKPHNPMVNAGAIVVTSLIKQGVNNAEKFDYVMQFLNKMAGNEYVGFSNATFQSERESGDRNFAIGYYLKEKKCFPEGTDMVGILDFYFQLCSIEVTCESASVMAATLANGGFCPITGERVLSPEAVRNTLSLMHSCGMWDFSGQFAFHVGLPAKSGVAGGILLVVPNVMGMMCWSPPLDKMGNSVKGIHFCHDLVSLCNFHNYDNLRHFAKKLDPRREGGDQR
# Test: Trp466 fluorescence titration of phosphate at […] glutamine
# Type: binding
smiles,measurement,value
O=P(O)(O)O [inorganic phosphate],Kd,8.5 ± 1.9 mM
